Measurements reported in patent US9884031B2, “Use of HDAC inhibitors for treatment of cardiac rhythm disorders” (THE TRUSTEES OF THE UNIVERSITY OF PENNSYLVANIA, priority 2007, dated 2018).

How the values were obtained:
phospho-ERK1/2 = experiment: Western blot of atrium: phospho-ERK1/2; type: in vivo, mouse; settings: TSA-Hop^Tg mice relative to Hop^Tg, FIG. 2D
Protocol: (§1) Adult mouse atrium and ventricle were dissected and homogenized in buffer containing 1% Igepal surfactant, 0.5% deoxycholate sodium, 2% SDS, 5 mmol EDTA (pH=7.4), 1% protease inhibitor cocktail tablet (Roche) with and without phosphatase inhibitor cocktail (Sigma-Aldrich). Samples were cleared of debris by centrifugation at 5000 g for 10 min. and the protein concentration was determined using a BCA protein assay kit (Pierce). Protein samples were run on a 4-12% gradient pre-cast SDS-PAGE gel (Invitrogen), and after electrophoresis were transferred onto PVDF membranes (Millipore) using 0.1% acetic acid/10% methanol as a transfer buffer. Membranes were incubated with primary antibodies in 5% milk and PBS overnight at 4° C. and then washed for 5 min, 4 times with TBS-T solution. […] Results were visualized by enhanced chemiluminescence using a commercially available kit (Western Breeze, Invitrogen) and data were recorded on BioMax-MR film (Kodak, Rochester, N.Y.). Densitometry was determined using the Image-J software package (National Institutes of Health). […]

phospho-JNK = experiment: Western blot of atrium: phospho-JNK; type: in vivo, mouse; settings: between Hop^Tg, TSA-Hop^Tg or control mice, FIG. 2B
Protocol: as §1

histone acetylation = settings: TSA 0.6 mg/kg/day, previous studies; cited from earlier work

In the case of `CC(/C=C/C(=O)NO)=C\[C@@H](C)C(=O)c1ccc(N(C)C)cc1` [TSA, Trichostatin A], the “Phospho-ERK1/2 protein expression in atrium” value (phospho-ERK1/2) is given as “increased”, the “Phospho-JNK protein expression in atrium” value (phospho-JNK) is given as “not different” and the “Histone acetylation in the heart, in words” value (histone acetylation) is given as “does augment histone acetylation”.
